Test results published in PubChem BioAssay AID330 (DTP/NCI, 2004).
Several values for one entry are separate records, joined by “and”; a condition that tells them apart may be missing. Identical values can stand only once. Toxic doses and inconclusive results are not listed. Peptide text beside a SMILES is read from it.

Tested on: P388 leukemia ip, CD2F1 mice, survival T/C
Experiment: NCI In Vivo Anticancer Drug Screen. Data for tumor model P388 Leukemia (intraperitoneal) in CD2F1 (CDF1) mice
Conditions: endpoint: median survival time, higher = longer survival
Outline: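 Mice carrying the transplanted tumor received test compound or vehicle. Survival was recorded in each group, and the value is the treated-group measurement divided by that of the vehicle-treated control group.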

[1] = dose: 5.0 mg/kg/injection, schedule: Q01DX009 (ip), vehicle: saline
[2] = dose: 10.0 mg/kg/injection, schedule: Q01DX009 (ip), vehicle: saline
[3] = dose: 12.5 mg/kg/injection, schedule: Q01DX009 (ip), vehicle: saline
[4] = dose: 25.0 mg/kg/injection, schedule: Q01DX009 (ip), vehicle: saline
[5] = dose: 50.0 mg/kg/injection, schedule: Q01DX009 (ip), vehicle: saline
[6] = dose: 100.0 mg/kg/injection, schedule: Q01DX009 (ip), vehicle: saline
[7] = dose: 50.0 mg/kg/injection, schedule: Q01DX005 (ip), vehicle: Klucel (hydroxypropylcellulose) (HPC)
[8] = dose: 100.0 mg/kg/injection, schedule: Q01DX005 (ip), vehicle: Klucel (hydroxypropylcellulose) (HPC)
[9] = dose: 200.0 mg/kg/injection, schedule: Q01DX005 (ip), vehicle: Klucel (hydroxypropylcellulose) (HPC)
[10] = dose: 200.0 mg/kg/injection, schedule: Q01DX009 (ip), vehicle: saline
[11] = dose: 100.0 mg/kg/injection, schedule: Q01DX009 (ip), vehicle: saline with Tween-80
[12] = dose: 50.0 mg/kg/injection, schedule: Q01DX005 (ip), vehicle: saline with Tween-80
[13] = dose: 50.0 mg/kg/injection, schedule: Q01DX009 (ip), vehicle: Klucel (hydroxypropylcellulose) (HPC)
[14] = dose: 100.0 mg/kg/injection, schedule: Q01DX009 (ip), vehicle: Klucel (hydroxypropylcellulose) (HPC)
[15] = dose: 200.0 mg/kg/injection, schedule: Q01DX009 (ip), vehicle: Klucel (hydroxypropylcellulose) (HPC)

Structure (SMILES): CN=C(NCCCOC)c1ccc(NC(=O)c2ccc(C(=O)Nc3ccc(C(=NC)NCCCOC)cc3)cc2)cc1
- T/C [1]: 118 % of control
- T/C (dose: 5.0 mg/kg/injection, schedule: Q04DX003 (ip), vehicle: saline): 100 % of control
- T/C [2]: 122 % of control
- T/C (dose: 10.0 mg/kg/injection, schedule: Q04DX003 (ip), vehicle: saline): 100 % of control
- T/C (dose: 20.0 mg/kg/injection, schedule: Q01DX009 (ip), vehicle: saline): 90 % of control
- T/C (dose: 20.0 mg/kg/injection, schedule: Q04DX003 (ip), vehicle: saline): 95 % of control

Structure (SMILES): N=C(N)c1ccc(N=C(N)Nc2ccc(C(=N)N)cc2)cc1
- T/C (dose: 6.25 mg/kg/injection, schedule: Q01DX009 (ip), vehicle: saline): 95 % of control
- T/C [3]: 95 % of control
- T/C [4]: 95 % of control

Structure (SMILES): Nc1ccc2c(c1)Cc1cc(NC=O)ccc1-2
- T/C [3]: 94 % of control
- T/C [4]: 91 % of control
- T/C [5]: 91 % of control
- T/C [6]: 91 % of control

Structure (SMILES): CCCCCCCCCCCCCCCCOP(=O)([O-])OCC[N+](C)(C)C
- T/C (dose: 15.0 mg/kg/injection, schedule: Q01DX005 (ip), vehicle: saline): 100 % of control
- T/C (dose: 30.0 mg/kg/injection, schedule: Q01DX005 (ip), vehicle: saline): 100 % of control
- T/C (dose: 60.0 mg/kg/injection, schedule: Q01DX005 (ip), vehicle: saline): 102 % of control and 103 % of control

Structure (SMILES): COc1cc(C(=O)c2ccc3c(c2)OCO3)cc(OC)c1OC
- T/C [7]: 98 % of control
- T/C [8]: 93 % of control
- T/C [9]: 99 % of control

Structure (SMILES): Cc1ccc(S(=O)(=O)NC(=O)O/N=C/c2ccco2)cc1
- T/C [7]: 98 % of control
- T/C [8]: 98 % of control
- T/C [9]: 100 % of control

Structure (SMILES): COc1ccc(CN)cc1OC
- T/C [6]: 100 % of control
- T/C [10]: 105 % of control

Structure (SMILES): CC1=C(c2ccccc2)OC(c2ccccc2)=C[P+]1(c1ccccc1)c1ccccc1
- T/C (dose: 1.56 mg/kg/injection, schedule: Q01DX005 (ip), vehicle: saline): 105 % of control
- T/C (dose: 3.12 mg/kg/injection, schedule: Q01DX005 (ip), vehicle: saline): 110 % of control

Structure (SMILES): COc1ccc(C(CC(=O)O)c2cc3c(cc2OC)OCO3)cc1 (configuration not stated)
- T/C (dose: 50.0 mg/kg/injection, schedule: Q01DX005 (ip), vehicle: distilled water + Tween-80): 94 % of control
- T/C (dose: 100.0 mg/kg/injection, schedule: Q01DX005 (ip), vehicle: distilled water + Tween-80): 96 % of control
- T/C (dose: 200.0 mg/kg/injection, schedule: Q01DX005 (ip), vehicle: distilled water + Tween-80): 90 % of control

Structure (SMILES): Cc1nc2sccn2c1C(N)=O
- T/C (dose: 60.0 mg/kg/injection, schedule: Q01DX005 (ip), vehicle: Klucel (hydroxypropylcellulose) (HPC)): 94 % of control
- T/C (dose: 100.0 mg/kg/injection, schedule: Q01DX001 (ip), vehicle: saline with Tween-80): 103 % of control
- T/C (dose: 120.0 mg/kg/injection, schedule: Q01DX005 (ip), vehicle: Klucel (hydroxypropylcellulose) (HPC)): 97 % of control
- T/C (dose: 200.0 mg/kg/injection, schedule: Q01DX001 (ip), vehicle: saline with Tween-80): 114 % of control
- T/C (dose: 400.0 mg/kg/injection, schedule: Q01DX001 (ip), vehicle: saline with Tween-80): 103 % of control

Structure (SMILES): CC(=O)Nc1ccn(C2OC(COC(C)=O)C(OC(C)=O)C2OC(C)=O)c(=O)n1 (configuration not stated)
- T/C (dose: 62.5 mg/kg/injection, schedule: Q01DX009 (ip), vehicle: Klucel (hydroxypropylcellulose) (HPC)): 102 % of control
- T/C (dose: 125.0 mg/kg/injection, schedule: Q01DX009 (ip), vehicle: Klucel (hydroxypropylcellulose) (HPC)): 119 % of control
- T/C (dose: 250.0 mg/kg/injection, schedule: Q01DX009 (ip), vehicle: Klucel (hydroxypropylcellulose) (HPC)): 157 % of control
- T/C (dose: 500.0 mg/kg/injection, schedule: Q01DX009 (ip), vehicle: Klucel (hydroxypropylcellulose) (HPC)): 155 % of control
- T/C (dose: 1000.0 mg/kg/injection, schedule: Q01DX009 (ip), vehicle: Klucel (hydroxypropylcellulose) (HPC)): 174 % of control

Structure (SMILES): NC(=O)SCC(=O)Nc1ccc2ncccc2c1
- T/C (dose: 100.0 mg/kg/injection, schedule: Q01DX009 (ip), vehicle: saline sonified): 100 % of control
- T/C (dose: 100.0 mg/kg/injection, schedule: Q04DX003 (ip), vehicle: saline sonified): 100 % of control
- T/C (dose: 200.0 mg/kg/injection, schedule: Q01DX009 (ip), vehicle: saline sonified): 113 % of control
- T/C (dose: 200.0 mg/kg/injection, schedule: Q04DX003 (ip), vehicle: saline sonified): 100 % of control
- T/C (dose: 400.0 mg/kg/injection, schedule: Q01DX009 (ip), vehicle: saline sonified): 90 % of control
- T/C (dose: 400.0 mg/kg/injection, schedule: Q04DX003 (ip), vehicle: saline sonified): 104 % of control

Structure (SMILES): CC[C@H](CC[C@@H](C)C1CC[C@H]2[C@@H]3CC=C4C[C@@H](OP(=O)(N5CC5)N5CC5)CC[C@]4(C)[C@H]3CC[C@]12C)C(C)C (some centres not stated)
- T/C [11]: 152 % of control
- T/C (dose: 200.0 mg/kg/injection, schedule: Q01DX009 (ip), vehicle: saline with Tween-80): 163 % of control and 171 % of control
- T/C (dose: 400.0 mg/kg/injection, schedule: Q01DX009 (ip), vehicle: saline with Tween-80): 98 % of control

Structure (SMILES): O=C1C2CC(Cl)C(SSC3CC4C(=O)N(SC(Cl)(Cl)C(Cl)Cl)C(=O)C4CC3Cl)CC2C(=O)N1SC(Cl)(Cl)C(Cl)Cl (configuration not stated)
- T/C (dose: 6.25 mg/kg/injection, schedule: Q01DX005 (ip), vehicle: saline with Tween-80): 108 % of control and 110 % of control
- T/C (dose: 12.5 mg/kg/injection, schedule: Q01DX005 (ip), vehicle: saline with Tween-80): 101 % of control and 107 % of control
- T/C [12]: 115 % of control

Structure (SMILES): CC(C)C(NC(=O)C(N)CCCN=C(N)N)C(=O)O (stereo not drawn) (H-Arg-Val-OH; configuration not given here)
- T/C [12]: 91 % of control
- T/C (dose: 100.0 mg/kg/injection, schedule: Q01DX005 (ip), vehicle: saline with Tween-80): 100 % of control
- T/C (dose: 200.0 mg/kg/injection, schedule: Q01DX005 (ip), vehicle: saline with Tween-80): 100 % of control

Structure (SMILES): Cn1cc(CCc2cc[n+](CCC[N+](C)(C)C)cc2)c2ccccc21
- T/C (dose: 1.25 mg/kg/injection, schedule: Q01DX009 (ip), vehicle: saline): 101 % of control
- T/C (dose: 2.5 mg/kg/injection, schedule: Q01DX009 (ip), vehicle: saline): 105 % of control
- T/C [1]: 109 % of control
- T/C [2]: 108 % of control

Structure (SMILES): CC1=NN(c2cc(S(=O)(=O)O)ccc2Cl)C(=O)C1N=Nc1ccccc1 (configuration not stated)
- T/C [5]: 105 % of control
- T/C [6]: 89 % of control

Structure (SMILES): Cc1ccc2nc(-c3ccc(CSC(=N)N)cc3)oc(=O)c2c1
- T/C (dose: 50.0 mg/kg/injection, schedule: Q01DX009 (ip), vehicle: saline with Tween-80): 93 % of control
- T/C [11]: 89 % of control

Structure (SMILES): O=C(N/C(=C\c1ccc2c(c1)OCO2)c1nc2ccccc2s1)c1ccccc1
- T/C (dose: 60.0 mg/kg/injection, schedule: Q01DX005 (ip), vehicle: saline with Tween-80): 107 % of control
- T/C (dose: 120.0 mg/kg/injection, schedule: Q01DX005 (ip), vehicle: saline with Tween-80): 121 % of control
- T/C (dose: 240.0 mg/kg/injection, schedule: Q01DX005 (ip), vehicle: saline with Tween-80): 123 % of control

Structure (SMILES): CN(C)c1ccc(/C=C/c2ccnc3c(O)cccc23)cc1
- T/C [13]: 113 % of control
- T/C [14]: 104 % of control
- T/C [15]: 95 % of control

Structure (SMILES): C/C(=N/NS(=O)(=O)c1ccc(C)cc1)C(=NO)/C(C)=N\NS(=O)(=O)c1ccc(C)cc1
- T/C [5]: 92 % of control
- T/C [6]: 100 % of control
- T/C [10]: 101 % of control

Structure (SMILES): O=C(NC(=O)C(F)(F)C(F)(F)F)Nc1ccc(Cl)cc1
- T/C [13]: 115 % of control
- T/C [14]: 98 % of control
- T/C [15]: 101 % of control

Structure (SMILES): CCOC(=O)C(Cc1ccc(N(CCCl)CCCl)cc1)NC(=O)C(NC(C)=O)C(C)C (configuration not stated)
- T/C (dose: 5.0 mg/kg/injection, schedule: Q04DX003 (ip), vehicle: water): 123 % of control
- T/C (dose: 20.0 mg/kg/injection, schedule: Q04DX003 (ip), vehicle: water): 160 % of control
- T/C (dose: 40.0 mg/kg/injection, schedule: Q04DX003 (ip), vehicle: water): 241 % of control
